# Measurements taken from ChEMBL document CHEMBL5223094, “Recent advancements in chromone as a privileged scaffold towards the development of small molecules for neurodegenerative therapeutics” (RSC Med Chem, 2022).
# What was measured:
# [1] = biological target: T1, Amine oxidase [flavin-containing] A (Homo sapiens, UniProt P21397); test: Inhibition of MAO-A (unknown origin) by fluorescence spectrophotometer analysis
# T1 sequence (P21397 whole entry): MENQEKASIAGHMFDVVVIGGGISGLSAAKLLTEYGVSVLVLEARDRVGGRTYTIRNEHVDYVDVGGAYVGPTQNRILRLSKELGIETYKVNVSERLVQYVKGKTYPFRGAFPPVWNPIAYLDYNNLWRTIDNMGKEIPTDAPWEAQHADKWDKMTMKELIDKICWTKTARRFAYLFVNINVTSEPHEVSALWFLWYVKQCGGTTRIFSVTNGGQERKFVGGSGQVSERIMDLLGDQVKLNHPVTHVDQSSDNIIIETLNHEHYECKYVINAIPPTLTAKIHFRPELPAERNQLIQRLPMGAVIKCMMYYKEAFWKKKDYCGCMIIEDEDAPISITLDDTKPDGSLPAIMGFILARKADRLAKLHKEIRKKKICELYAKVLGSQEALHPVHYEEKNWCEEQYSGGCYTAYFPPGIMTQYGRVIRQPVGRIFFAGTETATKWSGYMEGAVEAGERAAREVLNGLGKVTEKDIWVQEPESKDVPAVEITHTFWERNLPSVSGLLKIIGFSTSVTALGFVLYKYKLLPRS
# [2] = biological target: T2, Amine oxidase [flavin-containing] B (Homo sapiens, UniProt P27338); test: Inhibition of MAO-B (unknown origin) by fluorescence spectrophotometer analysis
# T2 sequence (P27338 whole entry): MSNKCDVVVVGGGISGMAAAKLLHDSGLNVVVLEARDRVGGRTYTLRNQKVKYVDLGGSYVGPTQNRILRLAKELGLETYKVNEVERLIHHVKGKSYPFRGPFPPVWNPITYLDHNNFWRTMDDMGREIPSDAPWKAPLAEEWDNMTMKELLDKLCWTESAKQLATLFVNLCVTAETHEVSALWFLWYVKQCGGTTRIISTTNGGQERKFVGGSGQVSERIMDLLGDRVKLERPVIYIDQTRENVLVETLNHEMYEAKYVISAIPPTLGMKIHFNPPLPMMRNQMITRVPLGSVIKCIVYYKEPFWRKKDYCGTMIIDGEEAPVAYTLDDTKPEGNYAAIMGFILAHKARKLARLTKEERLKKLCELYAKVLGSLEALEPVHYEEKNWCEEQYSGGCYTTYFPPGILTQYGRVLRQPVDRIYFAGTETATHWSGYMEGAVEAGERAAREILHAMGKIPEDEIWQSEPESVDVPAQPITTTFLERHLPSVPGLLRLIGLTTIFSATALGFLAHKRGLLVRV
# [3] = Selectivity index, ratio of Ki for displacement of [3H](+)-pentazocine from human sigma 1 receptor expressed in human HEK293 cells to Ki for displacement of (+)-[3H]DTG from rat sigma 2 receptor; assay type: cell-based
# Homo sapiens [4] = organism: Homo sapiens; test: Selectivity index, ratio of IC50 for inhibition of MAO-B (unknown origin) to IC50 for inhibition of MAO-A (unknown origin)
# Acetylcholinesterase [5] = biological target: Acetylcholinesterase (Electrophorus electricus, UniProt O42275); test: Inhibition of electric eel AChE using acetylthiocholine iodide as substrate preincubated for 15 mins followed by substrate addition by Ellman's method
# Chain of Acetylcholinesterase (Electrophorus electricus, UniProt O42275) (O42275 whole entry): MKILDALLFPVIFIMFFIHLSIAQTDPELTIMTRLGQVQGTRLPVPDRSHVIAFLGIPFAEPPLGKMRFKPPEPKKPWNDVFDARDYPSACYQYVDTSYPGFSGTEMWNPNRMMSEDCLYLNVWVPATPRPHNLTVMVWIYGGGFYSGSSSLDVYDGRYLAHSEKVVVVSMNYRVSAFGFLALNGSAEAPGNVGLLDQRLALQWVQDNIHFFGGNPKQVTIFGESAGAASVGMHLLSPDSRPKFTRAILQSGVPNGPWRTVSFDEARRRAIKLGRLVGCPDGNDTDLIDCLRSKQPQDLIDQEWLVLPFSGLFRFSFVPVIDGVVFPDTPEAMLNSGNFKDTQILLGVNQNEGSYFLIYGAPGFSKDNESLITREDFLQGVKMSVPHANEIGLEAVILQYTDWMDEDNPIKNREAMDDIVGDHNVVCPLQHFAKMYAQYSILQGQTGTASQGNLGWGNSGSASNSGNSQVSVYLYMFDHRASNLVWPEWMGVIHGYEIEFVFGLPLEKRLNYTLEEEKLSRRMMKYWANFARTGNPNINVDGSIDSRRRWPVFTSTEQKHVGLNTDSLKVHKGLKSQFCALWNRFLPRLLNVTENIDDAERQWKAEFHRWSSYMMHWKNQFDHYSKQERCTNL
# Cholinesterase [6] = biological target: Cholinesterase (Equus caballus, UniProt P81908); test: Inhibition of equine serum BuChE using butyrylthiocholine chloride as substrate preincubated for 15 mins followed by substrate addition by Ellman's method
# Chain of Cholinesterase (Equus caballus, UniProt P81908) (P81908 whole entry): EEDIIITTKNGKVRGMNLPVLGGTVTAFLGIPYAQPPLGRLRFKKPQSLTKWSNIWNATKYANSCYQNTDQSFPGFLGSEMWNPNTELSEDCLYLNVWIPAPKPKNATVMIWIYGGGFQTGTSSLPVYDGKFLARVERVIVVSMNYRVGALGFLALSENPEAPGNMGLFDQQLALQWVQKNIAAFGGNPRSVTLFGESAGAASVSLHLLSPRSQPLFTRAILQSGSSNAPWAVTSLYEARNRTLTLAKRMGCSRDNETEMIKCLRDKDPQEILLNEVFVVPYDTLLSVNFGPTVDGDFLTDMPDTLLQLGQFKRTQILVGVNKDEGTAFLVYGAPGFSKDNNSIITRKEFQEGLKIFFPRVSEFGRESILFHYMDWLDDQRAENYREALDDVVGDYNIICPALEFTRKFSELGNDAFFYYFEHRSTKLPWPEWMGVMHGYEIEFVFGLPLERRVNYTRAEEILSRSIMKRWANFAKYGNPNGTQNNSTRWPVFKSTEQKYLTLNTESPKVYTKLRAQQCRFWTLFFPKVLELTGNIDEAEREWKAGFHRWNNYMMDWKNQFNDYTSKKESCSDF
# [7] = biological target: Amyloid-beta precursor protein (Homo sapiens) (UniProt P05067); test: Inhibition of self-induced amyloid beta (1 to 42) (unknown origin) aggregation at 10 uM incubated for 48 hrs by ThT fluorometric assay
# Chain of Amyloid-beta precursor protein (Homo sapiens) (P05067 whole entry): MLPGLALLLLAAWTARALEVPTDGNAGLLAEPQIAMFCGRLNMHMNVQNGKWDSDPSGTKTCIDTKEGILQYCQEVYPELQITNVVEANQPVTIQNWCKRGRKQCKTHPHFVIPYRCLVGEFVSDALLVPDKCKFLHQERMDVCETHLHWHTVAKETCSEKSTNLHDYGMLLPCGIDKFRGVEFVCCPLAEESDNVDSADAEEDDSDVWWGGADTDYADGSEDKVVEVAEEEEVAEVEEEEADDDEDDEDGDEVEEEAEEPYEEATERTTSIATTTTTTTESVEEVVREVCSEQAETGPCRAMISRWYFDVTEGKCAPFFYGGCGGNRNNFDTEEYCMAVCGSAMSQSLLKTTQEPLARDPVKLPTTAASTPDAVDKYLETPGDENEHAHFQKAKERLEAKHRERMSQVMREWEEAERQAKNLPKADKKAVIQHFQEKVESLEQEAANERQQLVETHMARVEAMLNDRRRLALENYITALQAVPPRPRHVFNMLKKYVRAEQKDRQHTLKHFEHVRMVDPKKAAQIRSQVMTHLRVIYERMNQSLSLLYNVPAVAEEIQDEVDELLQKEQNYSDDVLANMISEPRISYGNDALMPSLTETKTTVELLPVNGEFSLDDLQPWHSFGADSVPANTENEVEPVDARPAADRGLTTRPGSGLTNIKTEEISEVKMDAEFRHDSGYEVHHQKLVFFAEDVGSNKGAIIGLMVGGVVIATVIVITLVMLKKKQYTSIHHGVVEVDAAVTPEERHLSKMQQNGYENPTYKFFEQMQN
# [8] = biological target: Amyloid-beta precursor protein (Homo sapiens) (UniProt P05067); test: Inhibition of electric eel AChE-indued amyloid beta (1 to 42) (unknown origin) aggregation at 100 uM incubated for 24 hrs by ThT fluorometric assay
# [9] = biological target: T2, Amine oxidase [flavin-containing] B; test: Inhibition of human MAO-B using tyramine as substrate preincubated for 10 mins followed by substrate addition and measured after 30 mins by fluorometric method
# Homo sapiens [10] = organism: Homo sapiens; test: Selectivity index, ratio of IC50 for inhibition of human MAO-B to IC50 for inhibition of human MAO-A
# [11] = biological target: Amyloid-beta precursor protein (Homo sapiens) (UniProt P05067); test: Inhibition of amyloid beta (1 to 42) (unknown origin) aggregation at 50 uM incubated for 24 hrs by ThT fluorometric assay
# [12] = biological target: T3, Polyunsaturated fatty acid lipoxygenase ALOX15 (Homo sapiens, UniProt P16050); test: Inhibition of LOX15 (unknown origin)
# T3 sequence (P16050 whole entry): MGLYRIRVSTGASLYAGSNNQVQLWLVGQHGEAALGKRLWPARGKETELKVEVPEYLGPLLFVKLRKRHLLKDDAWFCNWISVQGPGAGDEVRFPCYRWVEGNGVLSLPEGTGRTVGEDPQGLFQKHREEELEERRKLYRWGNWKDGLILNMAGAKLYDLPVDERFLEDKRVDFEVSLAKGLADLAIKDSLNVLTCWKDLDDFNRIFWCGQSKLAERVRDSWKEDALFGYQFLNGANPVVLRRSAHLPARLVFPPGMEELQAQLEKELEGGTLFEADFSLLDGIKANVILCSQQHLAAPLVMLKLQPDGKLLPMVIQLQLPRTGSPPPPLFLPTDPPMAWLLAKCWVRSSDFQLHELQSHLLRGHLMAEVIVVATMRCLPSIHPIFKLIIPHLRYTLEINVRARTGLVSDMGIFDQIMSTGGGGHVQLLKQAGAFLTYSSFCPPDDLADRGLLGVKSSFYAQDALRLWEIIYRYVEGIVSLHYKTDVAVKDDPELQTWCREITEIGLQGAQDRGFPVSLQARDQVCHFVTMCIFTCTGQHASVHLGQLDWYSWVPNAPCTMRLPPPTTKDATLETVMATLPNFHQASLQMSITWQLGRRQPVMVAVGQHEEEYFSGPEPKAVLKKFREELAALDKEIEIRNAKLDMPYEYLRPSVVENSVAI
# [13] = Antioxidant activity assessed as DPPH radical scavenging activity; assay type: functional
# Acetylcholinesterase [14] = biological target: Acetylcholinesterase (Homo sapiens, UniProt P22303); test: Inhibition of recombinant human AChE using acetylthiocholine as substrate preincubated for 15 mins followed by substrate addition and measured after 5 mins by DTNB reagent based Ellman's method
# Chain of Acetylcholinesterase (Homo sapiens, UniProt P22303) (P22303 whole entry): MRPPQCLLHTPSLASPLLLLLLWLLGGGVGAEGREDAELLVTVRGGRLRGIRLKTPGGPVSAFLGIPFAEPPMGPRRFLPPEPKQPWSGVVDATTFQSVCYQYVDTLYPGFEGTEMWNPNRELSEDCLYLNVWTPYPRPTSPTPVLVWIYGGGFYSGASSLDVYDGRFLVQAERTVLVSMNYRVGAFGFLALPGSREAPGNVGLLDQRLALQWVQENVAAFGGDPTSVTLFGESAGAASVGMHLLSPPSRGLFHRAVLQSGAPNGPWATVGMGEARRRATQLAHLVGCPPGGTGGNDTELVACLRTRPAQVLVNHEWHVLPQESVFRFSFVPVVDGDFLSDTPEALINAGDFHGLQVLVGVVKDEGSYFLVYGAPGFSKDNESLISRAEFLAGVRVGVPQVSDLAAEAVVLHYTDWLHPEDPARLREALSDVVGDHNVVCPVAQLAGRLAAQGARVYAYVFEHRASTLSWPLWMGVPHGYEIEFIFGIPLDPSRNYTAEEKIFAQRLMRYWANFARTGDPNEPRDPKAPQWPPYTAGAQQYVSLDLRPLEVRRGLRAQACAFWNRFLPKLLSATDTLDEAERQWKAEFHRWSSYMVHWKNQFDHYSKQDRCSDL
# Cholinesterase [15] = biological target: Cholinesterase (Homo sapiens, UniProt P06276); test: Inhibition of recombinant human BuChE using butyrylthiocholine as substrate preincubated for 15 mins followed by substrate addition and measured after 5 mins by Ellman's method
# Chain of Cholinesterase (Homo sapiens, UniProt P06276) (P06276 whole entry): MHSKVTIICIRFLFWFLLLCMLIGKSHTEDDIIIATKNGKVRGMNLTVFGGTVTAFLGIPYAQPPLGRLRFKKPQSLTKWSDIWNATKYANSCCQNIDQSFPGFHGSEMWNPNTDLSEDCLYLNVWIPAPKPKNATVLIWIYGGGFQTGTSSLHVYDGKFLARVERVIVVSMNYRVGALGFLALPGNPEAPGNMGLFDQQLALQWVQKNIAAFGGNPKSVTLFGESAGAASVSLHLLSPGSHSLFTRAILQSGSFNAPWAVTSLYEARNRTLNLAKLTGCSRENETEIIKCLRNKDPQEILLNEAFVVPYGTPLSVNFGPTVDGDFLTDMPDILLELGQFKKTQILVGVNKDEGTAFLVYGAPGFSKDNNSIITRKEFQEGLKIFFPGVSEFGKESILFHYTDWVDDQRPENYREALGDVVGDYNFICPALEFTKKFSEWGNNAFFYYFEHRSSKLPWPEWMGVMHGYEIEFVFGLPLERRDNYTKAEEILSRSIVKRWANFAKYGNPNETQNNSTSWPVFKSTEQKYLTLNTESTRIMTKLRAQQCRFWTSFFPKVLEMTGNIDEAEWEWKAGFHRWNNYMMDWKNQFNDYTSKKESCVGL
# [16] = biological target: T4, Polyunsaturated fatty acid 5-lipoxygenase (Homo sapiens, UniProt P09917); test: Inhibition of human LOX5 using arachidonic acid preincubated for 10 mins followed by substrate addition by microplate spectrophotometric analysis
# T4 sequence (P09917 whole entry): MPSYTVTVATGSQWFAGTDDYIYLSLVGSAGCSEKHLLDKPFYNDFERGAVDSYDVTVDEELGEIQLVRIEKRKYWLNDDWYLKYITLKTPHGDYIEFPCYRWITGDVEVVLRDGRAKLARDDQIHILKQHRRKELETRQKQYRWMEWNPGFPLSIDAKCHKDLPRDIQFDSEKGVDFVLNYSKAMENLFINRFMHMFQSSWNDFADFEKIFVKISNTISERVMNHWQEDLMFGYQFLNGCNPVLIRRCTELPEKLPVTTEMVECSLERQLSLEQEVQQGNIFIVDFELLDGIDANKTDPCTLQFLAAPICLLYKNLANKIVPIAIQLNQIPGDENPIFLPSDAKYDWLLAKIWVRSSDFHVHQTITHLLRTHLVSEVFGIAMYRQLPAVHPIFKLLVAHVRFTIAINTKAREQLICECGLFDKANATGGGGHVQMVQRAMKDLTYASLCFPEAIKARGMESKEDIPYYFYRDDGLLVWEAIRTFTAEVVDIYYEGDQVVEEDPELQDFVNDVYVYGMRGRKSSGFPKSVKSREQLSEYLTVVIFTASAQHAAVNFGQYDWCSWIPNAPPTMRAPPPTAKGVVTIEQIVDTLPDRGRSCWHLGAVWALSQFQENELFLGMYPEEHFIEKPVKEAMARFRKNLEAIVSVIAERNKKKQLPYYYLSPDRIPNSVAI
# [17] = Inhibition of soybean LOX15 using arachidonic acid preincubated for 5 mins followed by substrate addition and measured after 5 mins by microplate spectrophotometric analysis; design: species or system Glycine max
# [18] = Antioxidant activity assessed as DPPH radical scavenging activity incubated for 45 mins by microplate spectrophotometric anlaysis; assay type: functional
# [19] = biological target: T2, Amine oxidase [flavin-containing] B; test: Inhibition of recombinant human MAO-B using kynuramine as substrate preincubated for 10 mins followed by enzyme addition and measured after 20 mins by fluorescent microplate reader analysis
# Homo sapiens [20] = organism: Homo sapiens; test: Selectivity index, ratio of IC50 for inhibition of recombinant human MAO-B to IC50 for inhibition of recombinant human MAO-A
# [21] = biological target: T1, Amine oxidase [flavin-containing] A; test: Inhibition of recombinant human MAO-A using kynuramine as substrate preincubated for 10 mins followed by enzyme addition and measured after 20 mins by fluorescent microplate reader analysis
smiles,measurement,setting,value
O=c1cc(-c2ccc(Cl)cc2)oc2ccc(Cn3cc(Nc4ccc(F)cc4)nn3)cc12,IC50,[1],1600 nM
same,IC50,[2],2100 nM
O=c1ccoc2ccc(OCCCN3CCCCCC3)cc12,Ratio Ki,[3],28
O=c1cc(-c2ccc(Cl)cc2)oc2ccc(Cn3cc(Oc4cccc(O)c4)nn3)cc12,Ratio IC50,Homo sapiens [4],> 14
O=c1cc(-c2ccc(Cl)cc2)oc2cc(OCCCC[n+]3ccccc3)ccc12,IC50,Acetylcholinesterase [5],6 nM
same,IC50,Cholinesterase [6],2000 nM
same,inhibition,[7],28%
same,inhibition,[8],22%
O=c1ccoc2ccc(OCCCCCN3CCOCC3)cc12,Ratio Ki,[3],130
COc1ccc(NC(=O)c2c(OCc3ccccc3)ccc3c(=O)c(C)c(C)oc23)cc1,IC50,[9],100 nM
same,Ratio IC50,Homo sapiens [10],324
COc1cccc2oc3c(c(=O)c12)[C@H](O)CC3,inhibition,[11],74%
COc1ccc(-c2cc3cc4c(=O)c(C=O)coc4cc3o2)cc1,IC50,[12],9.6 µM
same,IC50,[13],18.1 µM
same,IC50,Acetylcholinesterase [14],10 µM
same,IC50,Cholinesterase [15],5 µM
same,IC50,[16],15 µM
same,IC50,[17],10 µM
same,IC50,[18],18 µM
COc1ccc2c(=O)cc(-n3ccc4ccccc43)oc2c1,IC50,[19],150 nM
same,Ratio IC50,Homo sapiens [20],> 670
COc1ccc2oc(-n3ccc4ccccc43)cc(=O)c2c1,IC50,[21],320 nM
same,IC50,[19],630 nM
COc1ccc2ccn(-c3cc(=O)c4ccccc4o3)c2c1,IC50,[19],150 nM
same,Ratio IC50,Homo sapiens [20],> 670
